According to patent US5026708A, “Pyrimidine type mevalonolactones” (Nissan Chemical Industries Ltd., priority 1987, dated 1991):
Structures can show the parent of a compound that is named as a salt. Where two headings read alike, the source gives them in different places.

Columns and labels:
[1] = tested on: cholesterol biosynthesis in which HMG-CoA reductase serves as a rate limiting enzyme (rat liver microsome and sup fraction); assay: Test A: Inhibition of cholesterol biosynthesis from acetate in vitro; assay type: biochemical, male Wistar rat; settings: for Relative activities by Test A: based on the activities of CS-514 by Test A being evaluated to be 1; for IC50: Test A, rat liver microsome and sup fraction, [2-14C]sodium acetate, 2 hours at 37° C., read-out: IC50 (molar concentration), inhibitory activities by Test A
Method: Enzyme solution was prepared from liver of male Wistar rat billialy connulated and discharged bile for over 24 hours. Liver was cut out at mid-dark and microsome and supernatant fraction which was precipitable with 40-80% of saturation of ammonium sulfate (sup fraction) were prepared from liver homogenate according to the modified merhod of Knauss et. al.; Kuroda, M., et. al., Biochim. Biophys. Acta, 489, 119 (1977). For assay of cholesterol biosynthesis, microsome (0.1 mg protein) and sup fraction (1.0 mg protein) were incubated for 2 hours at 37° C. in 200 μl of the reaction mixture containing ATP; 1 mM, Glutathione; 6 mM, Glucose-1-phosphate; 10 mM, NAD; 0.25 mM, NADP; 0.25 mM, CoA; 0.04 mM and 0.2 mM [2-^14 C]sodium acetate (0.2 μCi) with 4 μl of test compound solution dissolved in water or dimethyl sulfoxide. To stop reaction and saponify, 1 ml of 15% EtOH-KOH was added to the reactions and heated at 75° C. for 1 hour. Nonsaponifiable lipids were extracted with petroleum ether and incorporated ^14 C radioactivity was counted. Inhibitory activity of compounds was indicated with IC50.
(§1) With respect to the compounds of the present invention, the inhibitory activities against the cholesterol biosynthesis in which HMG-CoA reductase serves as a rate limiting enzyme, were measured by the above Test A and B. The results are shown in Tables 2, 2-2 and 3. Further, the results of the measurements by Test C are also presented.

[2] = tested on: cholesterol biosynthesis in Hep G2 cells; assay: Test B: Inhibition of cholesterol biosynthesis in culture cells; assay type: cell-based; settings: acetate added at 0 hr; for Relative activities by Test B-1: based on the activities of CS-514 by Test B-1 being evaluated to be 1
Method: Hep G2 cells at over 5th passage were seeded to 12 well plates and incubated with Dulbecco's modified Eagle (DME) medium containing 10% of fetal bovine serum (FBS) at 37° C., 5% CO2 until cells were confluent for about 7 days. Cells were exposed to the DME medium containing 5% of lipoprotein deficient serum (LpDS) prepared by ultracentrifugation method for over 24 hours. Medium was changed to 0.5 ml of fresh 5% LpDS containing DME before assay and 10 μl of test compound solution dissolved in water or DMSO were added. 0.2 μCi of [2-^14 C]sodium acetate (20 μl ) was added at 0 hr(B-1) or 4 hrs(B-2) after addition of compounds. After 4 hrs further incubation with [2-^14 C]sodium acetate, medium was removed and cells were washed with phosphate buffered saline(PBS) chilled at 4° C. Cells were scraped with rubber policeman and collected to tubes with PBS and digested with 0.2 ml of 0.5 N KOH at 37° C. Aliquot of digestion was used for protein analysis and remaining was saponified with 1 ml of 15% EtOH-KOH at 75° C. for 1 hour. Nonsaponifiable lipids were extracted with petroleum ether and ^14 C radioactivity was counted. Counts were revised by cell protein and indicated with DPM/mg protein. Inhibitory activity of compounds was indicated with IC50.
as §1

[3] = Test D: Acute toxicity; set-up: species or system ICR male mice; settings: mouse, in vivo, oral, 0.5% CMC suspension, read-out: mortality after seven days
Method: A 0.5% CMC suspension of a test compound was orally administered to ICR male mice (group of from one to three mice). The acute toxicity was determined based on the mortality after seven days. With compound I-5-8 and I-5-11 of the present invention, the mortality was 0% even when they were orally administered in an amount of 824 mg/kg and 982 mg/kg, respectively.

[4] = tested on: cholesterol biosynthesis; assay: Test C: Inhibition of cholesterol biosynthesis in vivo; set-up: species or system Male Sprague-Dawley rats; settings: rats
Method: Male Sprague-Dawley rats weighing about 150 g were fed normal Purina chow diet and water ad libitum, and exposed to 12 hours light/12 hours dark lighting pattern (2:00 PM-2:00 AM dark) prior to use for in vivo inhibition test of cholesterol biosynthesis. Animals were separated groups consisting of five rats as to be average mean body weight in each groups. […] As control, rats were orally administered only water or vehicle. At 90 minutes after sample administration, rats were injected intraperitoneally with 10 μCi of [2-^14 C]sodium acetate at volume of 0.2 ml per one. 2 Hours later, blood samples were obtained and serum were separated immediately. Total lipids were extracted according to the method of Folch et al. and saponified with EtOH-KOH. Nonsaponifiable lipids were extracted with petroleum ether and radio activity incorporated into nonsaponifiable lipids was counted.
Inhibitory activity was indicated as percent decrease of counts in testing groups (DPM/2 ml serum/2 hours) from that in control group.

Relative activities by Test A [1]	SMILES	Relative activities by Test B-1 [2]	also measured
15.9	O=C(O)CC(O)CC(O)/C=C/c1c(-c2ccc(F)cc2)nc(-c2cccc(Cl)c2)nc1C1CC1 (centres unmarked) [Compound I-5-13]		
12.2	O=C(O)CC(O)CC(O)/C=C/c1c(-c2ccc(F)cc2)nc(-c2cccc(C(F)(F)F)c2)nc1C1CC1 (centres unmarked) [Compound I-5-17]		
	CCOC(=O)CC(O)CC(O)/C=C/c1c(-c2ccc(F)cc2)nc(Cc2ccccc2)nc1C1CC1 (centres unmarked) [Compound I-1-12]	41.3	
	CC[C@H](C)C(=O)O[C@H]1C[C@@H](C)C=C2C=C[C@H](C)[C@H](CC[C@@H]3C[C@@H](O)CC(=O)O3)[C@H]21 [Mevinolin, reference compound]		IC50 [1]: 14 nM
	Cc1nc(-c2ccccc2)nc(-c2ccccc2)c1/C=C/C(O)CC(O)CC(=O)O (centres unmarked) [Compound I-5-3]		IC50 [1]: 100 nM
1.9	O=C(O)CC(O)CC(O)/C=C/c1c(-c2ccc(F)cc2)nc(-c2ccc(-c3ccccc3)cc2)nc1C1CC1 (centres unmarked) [Compound I-5-16]		
16.1	COc1ccc(-c2nc(-c3ccc(F)cc3)c(/C=C/C(O)CC(O)CC(=O)O)c(C3CC3)n2)cc1 (centres unmarked) [Compound I-5-14]		
5.2	CC(C)c1nc(-c2ccccc2)nc(-c2ccc(F)cc2)c1/C=C/[C@@H]1C[C@@H](O)CC(=O)O1 (relative stereo) [Compound I-3-8, (E)-6-[4'-(4''-fluorophenyl)-6'-(1''-methylethyl)-2'-phenylpyrimidin-5 '-ylethenyl]-4-hydroxy-3,4,5,6-tetrahydro-2H-pyran-2-one]		
14.8	O=C(O)CC(O)CC(O)/C=C/c1c(-c2ccc(F)cc2)nc(Cc2ccccc2)nc1C1CC1 (centres unmarked) [Compound I-5-12]	46.3	
14.5	Cc1ccc(-c2nc(-c3ccc(F)cc3)c(/C=C/C(O)CC(O)CC(=O)O)c(C3CC3)n2)cc1 (centres unmarked) [Compound I-5-15]	58.5	percent decrease of counts relative to control group ([4]; oral administration of 0.5 mg/kg): 35%
	CC[C@H](C)C(=O)O[C@H]1C[C@H](O)C=C2C=C[C@H](C)[C@H](CC[C@@H](O)C[C@@H](O)CC(=O)O)[C@H]21 [CS-514, reference compound]		IC50 ([2]; Homo sapiens, HepG2, Test B-1, Hep G2 cells, read-out: IC50 (molar concentration), Test B-1): 1400 nM; percent decrease of counts relative to control group ([4]; oral administration of 10 mg/kg): 55%; IC50 [1]: 12.5 nM
	CCOC(=O)CC(O)CC(O)/C=C/c1c(-c2ccc(F)cc2)nc(-c2cccc(Cl)c2)nc1C1CC1 (centres unmarked) [Compound I-1-13]	41.6	
	Cc1nc(C)c(/C=C/C(O)CC(O)CC(=O)O)c(-c2ccccc2)n1 (centres unmarked) [Compound I-5-2]		IC50 [1]: 5000 nM
	CCOC(=O)CC(O)CC(O)/C=C/c1c(-c2ccc(F)cc2)nc(-c2ccc(OC)cc2)nc1C1CC1 (centres unmarked) [Compound I-1-14]	72.5	
	Cc1nc(-c2ccccc2)nc(-c2ccc(F)cc2)c1/C=C/C(O)CC(O)CC(=O)O (centres unmarked) [Compound I-5-1, Sodium salt of (E)-3,5-dihydroxy-7-[4'-(4''-fluorophenyl)-6'methyl-2 2'-phenylpyrimidin-5'-yl]hept-6-enoic acid]		IC50 [1]: 18 nM

SMILES	Relative activities by Test A [1]	Relative activities by Test B-1 [2]	also measured
CC(C)c1nc(-c2ccccc2)nc(-c2ccc(F)cc2)c1/C=C/C(O)CC(O)CC(=O)O (centres unmarked) [Compound I-5-8]	4.6	36.1	mortality at 168 h ([3]; 824 mg/kg): 0%
O=C(O)CC(O)CC(O)/C=C/c1c(-c2ccc(F)cc2)nc(-c2ccccc2)nc1C1CC1 (centres unmarked) [Compound I-5-11]	15.9	28.4	mortality at 168 h ([3]; 982 mg/kg): 0%
